{"source": "patent US20080274976A1", "about": "(priority 2002, published 2008)", "key": {"TSha1 K^+ channel": {"system": "TSha1 K^+ channel", "assay_type": "cell-based, trout"}, "Shaker-Δ6-46": {"biological_target": "Shaker-Δ6-46 (Drosophila melanogaster, UniProt P08510, DEL6-46)", "sequence (P08510 1-655 with tags or gaps DEL6-46)": "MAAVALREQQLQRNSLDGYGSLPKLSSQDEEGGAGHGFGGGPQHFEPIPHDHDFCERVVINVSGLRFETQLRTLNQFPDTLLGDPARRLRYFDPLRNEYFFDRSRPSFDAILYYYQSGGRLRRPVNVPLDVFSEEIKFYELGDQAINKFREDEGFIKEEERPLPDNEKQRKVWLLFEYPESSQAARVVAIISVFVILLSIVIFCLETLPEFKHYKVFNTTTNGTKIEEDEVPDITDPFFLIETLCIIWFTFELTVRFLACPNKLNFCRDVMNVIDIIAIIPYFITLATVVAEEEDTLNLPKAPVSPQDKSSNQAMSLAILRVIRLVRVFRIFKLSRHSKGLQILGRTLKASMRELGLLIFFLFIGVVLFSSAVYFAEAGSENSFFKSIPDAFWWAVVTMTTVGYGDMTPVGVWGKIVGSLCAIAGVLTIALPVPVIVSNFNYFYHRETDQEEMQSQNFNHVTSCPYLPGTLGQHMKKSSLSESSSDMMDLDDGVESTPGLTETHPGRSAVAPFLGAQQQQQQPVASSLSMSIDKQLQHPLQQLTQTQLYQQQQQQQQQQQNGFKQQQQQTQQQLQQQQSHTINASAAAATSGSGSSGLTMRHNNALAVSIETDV", "assay_type": "cell-based"}}, "note": "Where a SMILES comes first, the peptide text is derived from it. Bridges are numbered along the chain shown (N, C = ends). [ ]: non-standard residue; d: D form. Hyp = O=C(O)[C@@H]1C[C@@H](O)CN1", "data": [{"smiles": "CC(C)C[C@@H]1NC(=O)[C@H](CO)NC(=O)[C@@H]2CSSC[C@@H]3NC(=O)[C@@H]4C[C@@H](O)CN4C(=O)[C@H](CC(N)=O)NC(=O)[C@H](CCCNC(=N)N)NC(=O)[C@H](CCCCN)NC(=O)[C@H](CSSC[C@H](NC(=O)[C@H](CO)NC(=O)[C@@H]4C[C@@H](O)CN4C(=O)[C@@H](N)CC(C)C)C(=O)N2)NC(=O)[C@H](C)NC(=O)[C@@H]2C[C@@H](O)CN2C(=O)[C@H](C(C)C)NC(=O)[C@@H]2C[C@@H](O)CN2C(=O)[C@H](CSSC[C@@H](C(=O)N[C@H](C(N)=O)[C@@H](C)O)NC3=O)NC(=O)[C@H](CC(C)C)NC(=O)[C@H](CCCNC(=N)N)NC(=O)[C@H](CC(C)C)NC(=O)[C@H](CC(N)=O)NC1=O", "note": "[κM-conotoxin RIIIK, LOSCCSLNLRLCOVOACKRNOCCT-NH2] (H-L[Hyp]SCCSLNLRLC[Hyp]V[Hyp]ACKRN[Hyp]CCT-NH2; disulfide 4-17, 5-22, 12-23)", "values": [{"measurement": "k^(C)on, times higher than in the Shaker-Δ6-46 channel", "setting": "TSha1 K^+ channel", "result": "about four"}, {"measurement": "k^(O)off for Tsha1, times smaller than in the Shaker-Δ6-46 channel", "setting": "TSha1 K^+ channel", "result": "about 20 times"}, {"measurement": "k^(O)on in Tsha1, times higher than in the Shaker-Δ6-46 channel", "setting": "TSha1 K^+ channel", "result": "three"}, {"measurement": "affinity for the open state (0 mV), times lower compared to the closed state", "setting": "Shaker-Δ6-46", "result": "about three to four"}, {"measurement": "k^(C)off", "setting": "Shaker-Δ6-46", "result": "6.0 ± 3.0", "unit": "s⁻¹"}, {"measurement": "k^(C)on", "setting": "Shaker-Δ6-46", "result": "4e+06 ± 700000", "unit": "M⁻¹ s⁻¹"}, {"measurement": "k^(O)off", "setting": "Shaker-Δ6-46", "result": "90 ± 30", "unit": "s⁻¹"}, {"measurement": "k^(O)on", "setting": "Shaker-Δ6-46", "result": "3e+07 ± 7e+06", "unit": "M⁻¹ s⁻¹"}]}]}
